This is an account of results in patent US9771395B2, “Enhanced influenza hemagglutinin binders” (UNIVERSITY OF WASHINGTON, priority 2014, dated 2017).

Values after ≈ are worked out from the molar mass of the structure shown.

The test system of series [1] is H1N1 A/California/07/2009 (CA09) virus. Kind of series: Pre-exposure administration and lethal influenza challenge in BALB/c mice. It counts as in vivo. As to conditions: 6.0 mg/kg, 48 or 2 hrs before CA09 challenge. On the procedure:
(§1) All animal experiments used in this study were approved by the University of Washington Institutional Animal Care and Use Committee. […] Two to forty-eight hours later, the mice were anesthetized by isoflurane and challenged intranasally with 10 MLD50 (fifty percent mouse lethal dose) of either A/California/07/09 (H1N1) (CA09) or A/PR/8/34 (H1N1) (PR8). In a therapeutic setting, mice received the protein binder 0 (2 hours post-infection), 1, 2, 3, or 4 days post infection. The mice were monitored daily for weight loss and survival until 14 days post-infection. Animals that lost more than 30% of their initial body weight were euthanized in accordance with our animal protocol. The SCID (NOD SCID gamma, strain NOD.Cg-Prkdcscid Il2rgtm1Wjl/SzJ) mice and the MyD88−/−(strain B6.129P2(SJL)-Myd88tm1.1Defr/J) mice were purchased from Jackson Laboratory.

Series [2] concerns CA09 virus. Kind of series: Pre-exposure administration and CA09 challenge in SCID mice. It counts as in vivo, NOD SCID gamma (SCID) mice. To be noted: 6.0 mg/kg IN 2 hrs before CA09. On the procedure:
as §1

Series [3] has as its system CA09 virus. Kind of series: Pre-exposure administration and CA09 challenge in MyD88-/- mice. It is filed as in vivo. As to conditions: 6.0 mg/kg IN 2 hrs before CA09. On the procedure:
as §1

Series [4] relates to human (H1N1) and avian (H5N1) influenza viruses. Kind of series: microbe, parasite or virus in culture. To be noted: Influenza A virus, MDCK, read-out: EC50 range. It is filed as cell-based, Influenza virus.
Series [5] relates to CA09 virus. Kind of series: Post-exposure (therapeutic) administration after CA09 challenge in BALB/c mice. It is filed as in vivo. The procedure: as §1, with “Two to forty-eight hours later, the mice were anesthetized by isoflurane and challenged intranasally with 10 MLD50 (fifty percent mouse lethal dose) of either A/California/07/09 (H1N1) (CA09) or A/PR/8/34 (H1N1) (PR8).” left out

Series [6] in a line: Bio-Plex inflammatory cytokines in lung homogenates after protein administration (no infection). It counts as in vivo, BALB/c mice. As to conditions: single IN dose 6.0 mg/kg. The procedure: The concentrations of cytokines in lung tissue were measured. […] Lungs were thawed, weighed and lysed using the Bio-Plex® Cell Lysis Kit (Bio-Rad, Hercules, Calif.). The levels of interleukin (IL)-6, IL-10. IL-12(p70), interferon (IFN)-γ, and tumor necrosis factor (TNF)-α in the lysate were measured using a Bio-Plex) multiplex bead array kit (Bio-Rad, Hercules, Calif.). The Bio-Plex® assay was performed in accordance with the manufacturer's instructions.

Series [7] relates to Group I Hemagglutinin (HA) subtypes. It counts as binding, Influenza virus.

With lysozyme [reference compound], the protection result in series [1] is reported as “no protection”. In series [2], the “survival (protected mice)” value is recorded as 0% and the weight loss result is “significant weight loss”. For the same molecule, in series [3], the “survival (protected mice)” value amounted to 0% and the weight loss entry is listed as “significant weight loss”.

On to `NC(=O)c1ncn([C@@H]2O[C@H](CO)[C@@H](O)[C@H]2O)n1` [Ribavirin, 1- -D-ribofuranosyl-1,2,4-triazole-3-carboxamide, reference compound], for which the EC50 (as a rule, the concentration giving half of the maximal effect) in series [4] lay in the range of 15 to 18 µg/mL (≈ 61.4 to 73.7 µM).

On to `CCOC(=O)C1=C[C@@H](OC(CC)CC)[C@H](NC(C)=O)[C@@H](N)C1` [oseltamivir, reference compound], for which the survival in series [5] (5 mg/kg/day by oral gavage, twice daily for 5 days starting day +1 p.i., 3 MLD50 CA09) was 0%. Besides, the “delay of time to death compared to controls” value in series [5] (5 mg/kg/day by oral gavage, twice daily for 5 days starting day +1 p.i., p<0.001) is recorded as “about 2.5 days”.

B1: 1u84: scaffold protein (PDB ID 1u84) that HB36.6 is modeled on; non-protective control (protein)
chain: SNAMDGQQLNRLLLEWIGAWDPFGLGKDAYDVEAASVLQAVYETEDARTLAARIQSIYEFAFDEPIPFPHCLKLARRLLELKQAASCPLP
Take B1: in series [5] (daily administration after CA09 challenge), the protection result is “no protection”. For the same molecule, in series [6], the “cytokine levels by 48 hrs” value is “dropped to pre-administration levels”. Moreover, the “survival (protected mice)” value in series [2] and in series [3] was 0% each time. Further, the weight loss result in series [2] and in series [3] was “significant weight loss” in each case.

B2: HB36.5: stable, broadly cross-reactive HA binding protein (SEQ ID NO: 4), parent of HB36.6 (protein)
chain: SNAMDGQQLNRLLLEWIGAWDPFGLGKDAYDYEAAEVLKAVYETESAFDLAMRIHWIYNFAFKRQIPFAHAQKLARRLLELKQAASSPLP
modifications: (1)..(5) optionally absent; (86)..(90) optionally absent
As to B2, the “cross-reactivity against Group I HA subtypes” value in series [7] was “broadly cross-reactive”.
